Where two headings read alike, the source gives them in different places.
Legend:
[1] = target: T1, aminopeptidase M (Sus scrofa, UniProt P15145); test: Inhibition of aminopeptidase M; assay type: biochemical
T1 sequence (P15145 1-963): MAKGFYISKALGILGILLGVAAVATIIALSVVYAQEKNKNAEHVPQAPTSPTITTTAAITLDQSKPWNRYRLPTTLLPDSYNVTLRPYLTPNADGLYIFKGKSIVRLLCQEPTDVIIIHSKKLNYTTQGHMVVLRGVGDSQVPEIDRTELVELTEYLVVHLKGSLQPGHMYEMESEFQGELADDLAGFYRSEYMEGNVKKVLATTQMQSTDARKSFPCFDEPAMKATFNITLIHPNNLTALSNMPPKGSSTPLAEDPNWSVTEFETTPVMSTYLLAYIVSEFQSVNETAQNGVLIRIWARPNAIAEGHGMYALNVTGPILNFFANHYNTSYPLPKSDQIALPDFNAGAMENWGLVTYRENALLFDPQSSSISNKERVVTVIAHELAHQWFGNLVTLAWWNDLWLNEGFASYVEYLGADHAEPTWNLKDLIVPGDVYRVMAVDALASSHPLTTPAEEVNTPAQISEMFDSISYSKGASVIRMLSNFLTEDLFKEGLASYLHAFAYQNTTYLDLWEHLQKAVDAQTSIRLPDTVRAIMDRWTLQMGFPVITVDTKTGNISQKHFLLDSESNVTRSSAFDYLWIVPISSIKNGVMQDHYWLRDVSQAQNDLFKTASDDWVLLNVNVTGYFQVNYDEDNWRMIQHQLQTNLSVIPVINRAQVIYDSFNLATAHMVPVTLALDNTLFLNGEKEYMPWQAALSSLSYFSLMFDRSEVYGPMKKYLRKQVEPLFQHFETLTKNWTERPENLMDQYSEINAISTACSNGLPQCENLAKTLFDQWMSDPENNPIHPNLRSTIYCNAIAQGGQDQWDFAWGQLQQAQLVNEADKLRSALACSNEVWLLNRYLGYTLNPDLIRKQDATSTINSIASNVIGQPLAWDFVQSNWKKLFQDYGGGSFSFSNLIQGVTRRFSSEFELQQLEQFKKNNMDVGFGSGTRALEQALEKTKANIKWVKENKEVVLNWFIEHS

[2] = target: cytosolic leucine aminopeptidase; test: Inhibition of cytosolic leucine aminopeptidase; assay type: biochemical
[3] = tested on: Thromboxane B2 (TXB2); test: Inhibition of thromboxane B2 (TXB2) in calcium ionophore A-23187-stimulated human blood; assay type: cell-based
Experimental: (§4) Blood was drawn from a human volunteer, and a compound solution at one of three concentrations (Table 3) or a single concentration (Table 4), or solution alone (vehicle) was added to a one ml aliquot of the blood. After incubation for 15 minutes, 14 μg of calcium ionophore A-23187 (as the free acid) was added, and the incubation continued for another 15 minutes. The reactions were stopped by immersion of the containers into slush ice, and the samples were centrifuged at 11,000 ×g to pellet red cells and leukocytes. An aliquot of the plasma was then assayed for the presence of thromboxane B2 or leukotriene B4 by standard radioimmunoassay techniques.

[4] = tested on: Leukotriene B4 (LTB4); test: Inhibition of leukotriene B4 (LTB4) in calcium ionophore A-23187-stimulated human blood; assay type: cell-based
Experimental: as §4

[5] = tested on: 15-lipoxygenase; test: Inhibition of 15-lipoxygenase in A-23187-stimulated PMNL with exogenous arachidonic acid; assay type: cell-based
From the text: (§1) Compounds 24 and 27 were also studied for their abilities to inhibit 5- and 15-lipoxygenase using calcium ionophore A-23187-stimulated polymorphonuclear leukocytes (PMNL) in the presence of exogenous arachidonic acid. […] LTC4 Synthase activity in human platelets was also not inhibited.

[6] = tested on: LTC4 Synthase; test: Inhibition of LTC4 synthase activity in human platelets; assay type: cell-based
From the text: as §1

[7] = tested on: LTB4 Formation in intact PMNL; test: LTB4 formation in calcium ionophore A-23187-stimulated intact PMNL; assay type: cell-based; conditions: for IC50: Homo sapiens, PMNL, calcium ionophore A-23187-stimulated, dose dependent
[8] = target: T2, LTA4 hydrolase (epoxide hydrolase activity) (Homo sapiens, UniProt P09960); test: Inhibition of epoxide hydrolase activity of LTA4 hydrolase, LTA4 as substrate; assay type: biochemical; conditions: Table 5; read-out: IC50 Epoxide Hydrolase
T2 construct: obtained from human leukocytes and was purified to apparent homogeneity; from tissue; host or cells: human leukocytes (purified to apparent homogeneity)
T2 sequence (P09960 1-611): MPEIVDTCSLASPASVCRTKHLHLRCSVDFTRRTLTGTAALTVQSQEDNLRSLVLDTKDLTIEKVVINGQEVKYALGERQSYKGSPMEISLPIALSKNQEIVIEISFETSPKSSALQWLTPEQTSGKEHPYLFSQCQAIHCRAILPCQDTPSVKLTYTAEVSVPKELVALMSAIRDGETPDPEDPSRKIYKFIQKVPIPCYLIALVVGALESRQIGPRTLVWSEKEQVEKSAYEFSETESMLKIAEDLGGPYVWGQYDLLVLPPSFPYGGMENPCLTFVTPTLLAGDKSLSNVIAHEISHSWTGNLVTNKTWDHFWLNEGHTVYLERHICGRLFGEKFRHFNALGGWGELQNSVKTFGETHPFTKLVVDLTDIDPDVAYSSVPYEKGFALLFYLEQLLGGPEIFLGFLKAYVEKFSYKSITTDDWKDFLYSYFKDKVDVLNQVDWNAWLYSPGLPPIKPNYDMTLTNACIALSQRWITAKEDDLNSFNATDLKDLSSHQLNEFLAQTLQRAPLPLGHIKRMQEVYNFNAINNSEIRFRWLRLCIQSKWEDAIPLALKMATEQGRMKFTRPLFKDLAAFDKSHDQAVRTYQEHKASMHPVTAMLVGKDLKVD
Experimental: Aliquots of enzyme (2.5 mg) were preincubated for 30-40 minutes at room temperature in 100 mL of 50 mM HEPES, pH 8, containing various amounts of the respective inhibitor. […] After addition of 200 ng PGB1 (internal standard), samples were acidified to pH value of 3 with 0.1M HCl, extracted on Chromabond C18 columns (Mackerey & Nagel), and finally analyzed on a computerized Waters HPLC system. The column (Radial-Pak C18 cartridge, 100×5 mm, Waters) was eluted with a mixture of methanol/water/acetic acid (70:30:0.01, v/v) at a flow rate of 1.2 mL/minutes. The UV absorbance of the eluate was monitored continuously at 270 nm. Amounts of LTB4 were computer calculated from peak area ratios between LTB4 and the internal standard PGB1. Peak area ratios were converted into molar ratios from comparisons with standard curve constructed from injections of known amounts of the respective compound.

[9] = target: T3, LTA4 hydrolase (Homo sapiens, UniProt P09960); test: Inhibition of LTA4 hydrolase, amidase (aminopeptidase) activity, L-alanyl p-nitroanilide as substrate; assay type: biochemical; set-up: LTA4 hydrolase purified from human leukocytes; from tissue; host or cells: human leukocytes (purified enzyme)
T3 sequence (P09960 1-611): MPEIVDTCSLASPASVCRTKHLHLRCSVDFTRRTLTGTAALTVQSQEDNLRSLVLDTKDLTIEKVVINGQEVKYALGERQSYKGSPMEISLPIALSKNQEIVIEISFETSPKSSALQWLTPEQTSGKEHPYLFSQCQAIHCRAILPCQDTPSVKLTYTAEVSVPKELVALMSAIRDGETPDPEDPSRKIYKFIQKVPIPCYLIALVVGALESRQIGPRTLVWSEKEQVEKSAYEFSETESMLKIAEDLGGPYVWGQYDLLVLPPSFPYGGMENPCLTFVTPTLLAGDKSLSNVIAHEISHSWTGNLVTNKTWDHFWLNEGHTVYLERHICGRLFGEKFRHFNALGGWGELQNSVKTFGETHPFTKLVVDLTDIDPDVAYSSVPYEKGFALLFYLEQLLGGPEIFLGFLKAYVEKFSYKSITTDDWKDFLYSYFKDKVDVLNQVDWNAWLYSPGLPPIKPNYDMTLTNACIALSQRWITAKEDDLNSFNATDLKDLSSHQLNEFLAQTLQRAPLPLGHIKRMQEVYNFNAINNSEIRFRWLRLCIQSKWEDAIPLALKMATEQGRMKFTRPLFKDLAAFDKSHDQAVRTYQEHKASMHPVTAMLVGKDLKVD
Experimental: ^a All assays were performed in TrisHCl buffer (0.05 M, pH 8.0) with
Lalanyl pnitroanilide (1.5 mM) as substrate unless otherwise indicated.
for each assay (final volume = 1.0 mL). pNitroaniline formation was
monitored spectrophotometrically at 405 nm. Thiol compounds were assayed
in the presence of 5 mM DTT. The values shown are within ± 5 percent
accuracy. Dixon plot was used to determine the Ki values.

[10] = target: cyclooxygenase; conditions: read-out: IC50, cyclooxygenase production of PGD2; cited from earlier work
[11] = target: 5-lipoxygenase; conditions: read-out: IC50, 5-lipoxygenase production of 5-HETE; cited from earlier work
[12] = substrate: N=C(N)NCCC[C@H](N)C(=O)Nc1ccc([N+](=O)[O-])cc1; test: purified protein, by the assay type; conditions: other: Table 1, 50 mM TrisCl, pH 7.6, 0.1 M NaCl
[13] = substrate: CC(C)C[C@H](N)C(=O)Nc1ccc([N+](=O)[O-])cc1; test: Kinetic parameters of LTA4 hydrolase-catalyzed hydrolysis of LTA4 and amide substrates; assay type: biochemical; conditions: other: Table 1, 50 mM TrisCl, pH 7.6, 0.1 M NaCl
Experimental: (§2) Several amino acid amides were assayed as substrates for LTA4 hydrolase. Yuan et al., Bioorg. & Med. Chem. Lett., 1:551 (1991).
(§3) ^a Determined in 50 mM TrisCl, pH 7.6, in the presence of 0.1 M NaCl, […]

[14] = substrate: CCCCC/C=C\C\C=C/C=C/C=C/[C@@H]1O[C@H]1CCCC(=O)O; test: as above; assay type: biochemical; conditions: other: Table 1, 50 mM TrisCl, pH 7.6, 0.1 M NaCl
Experimental: as §2, §3

[15] = substrate: C[C@H](N)C(=O)Nc1ccc([N+](=O)[O-])cc1; test: as above; assay type: biochemical; conditions: other: Table 1, 50 mM TrisCl, pH 7.6, 0.1 M NaCl
Experimental: as §2, §3

[16] = substrate: NCCCC[C@H](N)C(=O)Nc1ccc([N+](=O)[O-])cc1; test: as above; assay type: biochemical; conditions: other: Table 1, 50 mM TrisCl, pH 7.6, 0.1 M NaCl
Experimental: as §2, §3

[17] = substrate: O=C(Nc1ccc([N+](=O)[O-])cc1)[C@@H]1CCCN1; test: as above; assay type: biochemical; conditions: other: Table 1, 50 mM TrisCl, pH 7.6, 0.1 M NaCl
Experimental: as §2, §3

[18] = read-out: % Inhibition TXB2, Table 4, 10 μM
[19] = Homo sapiens, read-out: % Inhibition LTB4, Table 3
[20] = Homo sapiens, read-out: % Inhibition LTB4, Table 4
[21] = Homo sapiens, Table 3, read-out: % Inhibition LTB4

Molecule: N[C@@H](Cc1ccc(OCc2ccccc2)cc1)[C@H](O)C(=O)OCc1ccccc1 [Compound 24]
- IC50 [1]: > 100000 nM
- IC50 [2]: 80000 nM
- inhibition at 1 µM ([3]; read-out: % Inhibition TXB2, Table 3, 1 μM): 0%
- inhibition at 3 µM ([3]; read-out: % Inhibition TXB2, Table 3, 3 μM): 17%
- inhibition at 10 µM ([3]; read-out: % Inhibition TXB2, Table 3, 10 μM): 4%
- inhibition at 10 µM [3, 18]: 0%
- inhibition at 1 µM [4, 19]: 7%
- inhibition at 3 µM [4, 19]: 44%
- inhibition at 10 µM [4, 19]: 39%
- inhibition at 10 µM [4, 20]: 18%
- inhibition of 15-lipoxygenase activity (in words) [5]: No inhibition
- inhibition of LTC4 synthase activity (in words) [6]: not inhibited
- IC50 [7]: 100 to 200 nM
- activity in intact PMNL compared with isolated enzyme (in words) ([7]; intact PMNL versus isolated enzyme): unexpectedly much more active in this assay using intact PMNL than in assays with the isolated enzyme

Molecule: COC(=O)C(=O)[C@@H](N)Cc1ccc(OCc2ccccc2)cc1 [Compound 25]
- IC50 [8]: 100000 nM
- IC50 [1]: 80000 nM
- inhibition at 1 µM ([3]; Table 3, 1 μM, read-out: % Inhibition TXB2): 25%
- inhibition at 3 µM ([3]; Table 3, 3 μM, read-out: % Inhibition TXB2): 20%
- inhibition at 10 µM ([3]; Table 3, 10 μM, read-out: % Inhibition TXB2): 41%
- inhibition at 1 µM [4, 21]: 29%
- inhibition at 3 µM [4, 21]: 59%
- inhibition at 10 µM [4, 21]: 39%
- tightness of binding to the enzyme relative to Compound 23 ([9]; Compound 25 versus Compound 23): 30 times
- IC50 ([9]; L-alanyl p-nitroanilide 1.5 mM, pH 8.0, thiols with 5 mM DTT): 600 nM
- selectivity for LTA4 binding (in words) ([9]; versus other aminopeptidases): selective for LTA4 binding

Molecule: Cl.N[C@H](CS)Cc1ccc(OCc2ccccc2)cc1 [Compound 27, (2S)-3-[4-(benzyloxy)phenyl]-2-amino-propanethiol HCl]
- IC50 [2]: > 50000 nM
- inhibition at 10 µM [3, 18]: 100%
- inhibition at 10 µM [4, 20]: 100%
- IC50 ([4]; Homo sapiens, read-out: IC50 in this assay (human blood)): ~1100 nM
- inhibition of 15-lipoxygenase activity (in words) [5]: No inhibition
- inhibition of LTC4 synthase activity (in words) [6]: not inhibited
- IC50 [7]: 100 to 200 nM

Molecule: COc1ccc(-n2nc(CCC(=O)N(C)O)cc2-c2ccc(Cl)cc2)cc1 [Tepoxalin]
- potency in the blood eicosanoid assay (in words) ([4]; Table 3 assay system): more potent than any compound in this table
- IC50 [10]: 200 nM
- IC50 [11]: 1290 nM

B1: LTA4 hydrolase (Homo sapiens) (protein)
chain: MPEIVDTCSLASPASVCRTKHLHLRCSVDFTRRTLTGTAALTVQSQEDNLRSLVLDTKDLTIEKVVINGQEVKYALGERQSYKGSPMEISLPIALSKNQEIVIEISFETSPKSSALQWLTPEQTSGKEHPYLFSQCQAIHCRAILPCQDTPSVKLTYTAEVSVPKELVALMSAIRDGETPDPEDPSRKIYKFIQKVPIPCYLIALVVGALESRQIGPRTLVWSEKEQVEKSAYEFSETESMLKIAEDLGGPYVWGQYDLLVLPPSFPYGGMENPCLTFVTPTLLAGDKSLSNVIAHEISHSWTGNLVTNKTWDHFWLNEGHTVYLERHICGRLFGEKFRHFNALGGWGELQNSVKTFGETHPFTKLVVDLTDIDPDVAYSSVPYEKGFALLFYLEQLLGGPEIFLGFLKAYVEKFSYKSITTDDWKDFLYSYFKDKVDVLNQVDWNAWLYSPGLPPIKPNYDMTLTNACIALSQRWITAKEDDLNSFNATDLKDLSSHQLNEFLAQTLQRAPLPLGHIKRMQEVYNFNAINNSEIRFRWLRLCIQSKWEDAIPLALKMATEQGRMKFTRPLFKDLAAFDKSHDQAVRTYQEHKASMHPVTAMLVGKDLKVD
- Km [12]: 200 µM
- Vmax [12]: 135 nmol/min/mg
- Km [13]: 300 µM
- Vmax [13]: 135 nmol/min/mg
- Km [14]: 7.6 µM
- Km [15]: 500 µM
- Vmax [15]: 530 nmol/min/mg
- Km [16]: 100 µM
- Vmax [16]: 30 nmol/min/mg
- Km [17]: 100 µM
- Vmax [17]: 135 nmol/min/mg

— patent US5455271A, “Tight-binding inhibitors of leukotriene A4 hydrolase” (The Scripps Research Institute, priority 1993, dated 1995)
